The results in this text go back to patent US9518015B2, “EP1 receptor ligands” (LABORATORIOS DEL DR. ESTEVE, S.A., priority 2011, dated 2016).

One assay deals with T1, human EP1 receptor (Homo sapiens, UniProt P34995).
T1 sequence (P34995 1-402): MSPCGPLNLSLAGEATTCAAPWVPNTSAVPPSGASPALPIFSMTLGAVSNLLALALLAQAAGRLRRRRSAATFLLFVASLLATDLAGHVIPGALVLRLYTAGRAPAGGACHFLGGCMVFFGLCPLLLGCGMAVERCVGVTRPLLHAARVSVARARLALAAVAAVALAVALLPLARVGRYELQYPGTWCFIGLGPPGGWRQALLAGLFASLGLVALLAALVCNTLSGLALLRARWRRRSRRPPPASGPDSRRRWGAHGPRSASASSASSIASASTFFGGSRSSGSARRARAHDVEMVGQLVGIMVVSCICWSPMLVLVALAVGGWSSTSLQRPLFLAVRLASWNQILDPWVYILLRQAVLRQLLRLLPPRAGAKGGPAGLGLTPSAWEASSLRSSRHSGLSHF
In words: Test 2: Measurement of IP1 responses by HTRF, suspended HEK-293 cells stably expressing human EP1 receptors, PGE2 30 nM. Type of assay: cell-based. More on the design: expressed in transfected cells. As to conditions: HEK293, at 10 μM, read-out: Results of Test 2 (Functional assay), % inh. The procedure:
Test 2: Measurement of IP1 responses by Homogeneous Time Resolved Fluorescence
IP1 measurements on HEK-293 cells that stably expressed human EP1 receptors were performed by using a system based on Homogeneous Time Resolved Fluorescense (HTRF) (Gabriel et al., 2003). This technology allows the direct measurement of IP1 in living cells. The principle of this assay is based on competition between IP1 produced by cells and IP1-d2 conjugate for the binding with monoclonal anti-IP1-cryptate conjugate. The HTRF IP1 kit from CisBio was used according to the manufacturer's directions. The experimental procedure was performed as stated below.
Suspended cells (30,000 cells per well) were added to 96-well culture plates in 40 μl of stimulation buffer (supplied by the kit). Compounds were then added in 20 μl of stimulation buffer and incubated at 37° C. for 15 minutes followed by 10 μl of PGE2 to a final concentration of […]. After 90 minutes at 37° C., the reaction was stopped lysing the cells with a mixture of 15 μl of cryptate and 15 μl of IP1-d2 prepared in the lysis buffer supplied by the manufacturer. Plates were incubated for an additional hour at room temperature and read at 665 nm/620 nm using an UltraEvolution Plate reader (Tecan).
Antagonist percentage inhibition was calculated relating compounds activity to the 0% inhibition of the wells incubated with 10 nM PGE2 alone and 100% inhibition of the wells incubated with 10 nM PGE2 plus 1 μM of the reference antagonist.
(In general: Time-resolved FRET reads energy transfer from a long-lived donor to a nearby acceptor.)
Consider `O=C(O)c1cccc2c1ccn2Cc1cc(Br)ccc1OCc1ccc(Cl)cc1F` [Example 9, 1-(5-bromo-2-((4-chloro-2-fluorobenzyl)oxy)benzyl)-1H-indole-4-carboxylic acid], for which the inhibition at 10 µM was > 75%.

With `CC(C)COc1cc(Cl)ccc1Cn1ccc2c(C(=O)O)cccc21` [Example 10, 1-(4-chloro-2-isobutoxybenzyl)-1H-indole-4-carboxylic acid], the inhibition at 10 µM was 45 to 75%. Turning to `O=C(O)c1cccc2c1ccn2Cc1cc(F)ccc1OCc1ccc(F)cc1C(F)(F)F` [Example 18, 1-(5-fluoro-2-((4-fluoro-2-(trifluoromethyl)benzyl)oxy)benzyl)-1H-indole-4-carboxylic acid], the inhibition at 10 µM is > 75%.

Take `CC(Oc1ccc(Cl)cc1Cn1ccc2c(C(=O)O)cccc21)c1ccc(F)cc1F` (centres unmarked) [Example 23]: the inhibition at 10 µM was > 75%. On to `O=C(O)c1cccc2c1ccn2Cc1cc(Cl)cc(Br)c1OCc1ccc(Br)cc1F` [Example 28, 1-(3-bromo-2-((4-bromo-2-fluorobenzyl)oxy)-5-chlorobenzyl)-1H-indole-4-carboxylic acid], for which the inhibition at 10 µM lay in the range of 45 to 75%. On the same count and under the same terms, then `O=C(O)c1cccc2c1ccn2Cc1cc(F)ccc1OCc1ccc(F)cc1` [Example 35, 1-(5-fluoro-2-((4-fluorobenzyl)oxy)benzyl)-1H-indole-4-carboxylic acid], with > 75%; and `O=C(O)c1cccc2c1ccn2Cc1cc(F)ccc1OCc1cc(F)c(F)cc1Cl` [Example 36, 1-(2-((2-chloro-4,5-difluorobenzyl)oxy)-5-fluorobenzyl)-1H-indole-4-carboxylic acid], with 45 to 75%; and `O=C(O)c1cccc2c1ccn2Cc1cc(C(F)(F)F)ccc1OCc1c(F)cccc1F` [Example 37, 1-(2-((2,6-difluorobenzyl)oxy)-5-(trifluoromethyl)benzyl)-1H-indole-4-carboxylic acid], with > 75%.

For the molecule `O=C(O)c1cccc2c1ccn2Cc1cc(F)ccc1OCc1cc(F)ccc1Cl` [Example 38, 1-(2-((2-chloro-5-fluorobenzyl)oxy)-5-fluorobenzyl)-1H-indole-4-carboxylic acid], the inhibition at 10 µM was > 75%. Still for that read-out and setting: next, `O=C(O)c1cccc2c1ccn2Cc1cc(C(F)(F)F)ccc1OCc1cc(F)ccc1F` [Example 39, 1-(2-((2,5-difluorobenzyl)oxy)-5-(trifluoromethyl)benzyl)-1H-indole-4-carboxylic acid]: > 75%. Still for that read-out and setting: next, `O=C(O)c1cccc2c1ccn2Cc1cc(Cl)cc(Br)c1OCc1c(F)cccc1F` [Example 40, 1-(3-bromo-5-chloro-2-((2,6-difluorobenzyl)oxy)benzyl)-1H-indole-4-carboxylic acid]: 45 to 75%; `O=C(O)c1cccc2c1ccn2Cc1cc(Cl)ccc1OCc1cc(F)cc(F)c1` [Example 41, 1-(5-chloro-2-((3,5-difluorobenzyl)oxy)benzyl)-1H-indole-4-carboxylic acid]: > 75%; `CC(c1cc(Cl)ccc1OCc1ccc(Cl)cc1F)n1ccc2c(C(=O)O)cccc21` (centres unmarked) [Example 42, 1-(1-(5-chloro-2-((4-chloro-2-fluorobenzyl)oxy)phenyl)ethyl)-1H-indole-4-carboxylic acid]: > 75%. `O=C(O)c1cccc2c1ccn2Cc1cc(Cl)ccc1OCc1ccc(F)cc1F` [Example 43, 1-(5-chloro-2-((2,4-difluorobenzyl)oxy)benzyl)-1H-indole-4-carboxylic acid]: the inhibition at 10 µM is > 75%.

In the case of `O=C(O)c1cccc2c1ccn2Cc1cc(Cl)ccc1OCc1ccc(Br)cc1F` [Example 46, 1-(2-((4-bromo-2-fluorobenzyl)oxy)-5-chlorobenzyl)-1H-indole-4-carboxylic acid], the inhibition at 10 µM is > 75%. Regarding `O=C(O)c1cccc2c1ccn2Cc1cc(C(F)(F)F)ccc1OCc1ccccc1F` [Example 52, 1-(2-((2-fluorobenzyl)oxy)-5-(trifluoromethyl)benzyl)-1H-indole-4-carboxylic acid], the inhibition at 10 µM is > 75%. On the same count and under the same terms, next, `O=C(O)c1cccc2c1ccn2Cc1cc(F)ccc1OCc1ccc(F)cc1F` [Example 53, 1-(2-((2,4-difluorobenzyl)oxy)-5-fluorobenzyl)-1H-indole-4-carboxylic acid]: > 75%. Still for that read-out and setting: then `O=C(O)c1cccc2c1ccn2Cc1cc(Cl)ccc1OCc1c(F)cc(Br)cc1F` [Example 58, 1-(2-((4-bromo-2,6-difluorobenzyl)oxy)-5-chlorobenzyl)-1H-indole-4-carboxylic acid], with > 75%. Same read-out and setting: then `O=C(O)c1cccc2c1ccn2Cc1cc(Cl)cc(Cl)c1OCc1ccc(Cl)cc1F` [Example 59, 1-(3,5-dichloro-2-((4-chloro-2-fluorobenzyl)oxy)benzyl)-1H-indole-4-carboxylic acid], with 45 to 75%; and `O=C(O)c1cccc2c1ccn2Cc1cc(Br)ccc1OCc1c(F)cc(Cl)cc1F` [Example 60, 1-(5-bromo-2-((4-chloro-2,6-difluorobenzyl)oxy)benzyl)-1H-indole-4-carboxylic acid], with > 75%. As to `O=C(O)c1cccc2c1ccn2Cc1ncccc1OCc1ccc(Cl)cc1F` [Example 61, 1-((3-((4-chloro-2-fluorobenzyl)oxy)pyridin-2-yl)methyl)-1H-indole-4-carboxylic acid], the inhibition at 10 µM is 45 to 75%. The same measure, in the same setting: then `O=C(O)c1cccc2c1ccn2Cc1cc(Cl)ccc1CCc1ccc(Cl)cc1F` [Example 63, 1-(5-chloro-2-(4-chloro-2-fluorophenethyl)benzyl)-1H-indole-4-carboxylic acid], with > 75%. As for `O=C(O)c1ccc2c(ccn2Cc2cc(Cl)ccc2OCC2CC2)c1` [Example 64, 1-(5-chloro-2-(cyclopropylmethoxy)benzyl)-1H-indole-5-carboxylic acid], the inhibition at 10 µM was > 75%. `O=C(O)c1ccc2c(ccn2Cc2cc(F)ccc2OCc2cc(F)c(F)cc2F)c1` [Example 65]: the inhibition at 10 µM was > 75%.

Consider `O=C(O)c1ccc2c(ccn2Cc2cc(F)ccc2OCc2ccc(F)cc2Cl)c1` [Example 66, 1-(2-((2-chloro-4-fluorobenzyl)oxy)-5-fluorobenzyl)-1H-indole-5-carboxylic acid], for which the inhibition at 10 µM is > 75%.

Consider `O=C(O)c1ccc2c(ccn2Cc2cc(Cl)ccc2OCc2ccc(F)cc2C(F)(F)F)c1` [Example 67], for which the inhibition at 10 µM was 45 to 75%. On the same count and under the same terms, next, `O=C(O)c1ccc2c(ccn2Cc2cc(Br)ccc2OCc2ccc(F)cc2Cl)c1` [Example 70, 1-(5-bromo-2-((2-chloro-4-fluorobenzyl)oxy)benzyl)-1H-indole-5-carboxylic acid]: > 75%. As to `O=C(O)c1ccc2c(ccn2Cc2cc(F)ccc2OCc2cc(F)c(F)c(F)c2)c1` [Example 71, 1-(5-fluoro-2-((3,4,5-trifluorobenzyl)oxy)benzyl)-1H-indole-5-carboxylic acid], the inhibition at 10 µM fell in the range of 45 to 75%. For the molecule `O=C(O)c1ccc2c(ccn2Cc2cc(F)ccc2OCc2cc(F)c(F)cc2Cl)c1` [Example 72, 1-(2-((2-chloro-4,5-difluorobenzyl)oxy)-5-fluorobenzyl)-1H-indole-5-carboxylic acid], the inhibition at 10 µM is > 75%. Turning to `O=C(O)c1ccc2c(ccn2Cc2cc(F)ccc2OCc2cc(F)ccc2Cl)c1` [Example 73, 1-(2-((2-chloro-5-fluorobenzyl)oxy)-5-fluorobenzyl)-1H-indole-5-carboxylic acid], the inhibition at 10 µM is 45 to 75%. Still for that read-out and setting: next, `O=C(O)c1ccc2c(ccn2Cc2cc(Br)ccc2OCc2ccc(F)cc2F)c1` [Example 74, 1-(5-bromo-2-((2,4-difluorobenzyl)oxy)benzyl)-1H-indole-5-carboxylic acid]: 45 to 75%; `O=C(O)c1ccc2c(ccn2Cc2cc(Cl)ccc2OCc2ccc(Cl)cc2F)c1` [Example 76, 1-(5-chloro-2-((4-chloro-2-fluorobenzyl)oxy)benzyl)-1H-indole-5-carboxylic acid]: 45 to 75%; `O=C(O)c1ccc2c(ccn2Cc2cc(Cl)ccc2OCc2ccc(F)cc2F)c1` [Example 78]: > 75%.

`O=C(O)/C=C/c1cccc2c1ccn2Cc1cc(C(F)(F)F)ccc1OCc1ccccc1` [Example 79, (E)-3-(1-(2-(benzyloxy)-5-(trifluoromethyl)benzyl)-1H-indol-4-yl)acrylic acid]: the inhibition at 10 µM was > 75%.

Staying with this assay, now noted: at 10 μM.
For the molecule `O=C(O)CCc1cccc2c1ccn2Cc1cc(Cl)ccc1OCc1ccc(Cl)cc1F` [Example 62, 3-(1-(5-chloro-2-((4-chloro-2-fluorobenzyl)oxy)benzyl)-1H-indol-4-yl)propanoic acid], the “Results of Test 2 (Functional assay), % inh” value is “$ (% inh > 75)”.
